Data on twelve molecules can be found in article PMC10041534, “Development of Fluorescent 4-[4-(3H-Spiro[isobenzofuran-1,4′-piperidin]-1′-yl)butyl]indolyl Derivatives as High-Affinity Probes to Enable the Study of σ Receptors via Fluorescence-Based Techniques” (Journal of Medicinal Chemistry, 2023).

Each structure is given as a SMILES string. Values joined by “and” are separate entries in the source; they are usually repeats but may differ in a detail not shown here. Identical values can stand only once. Like-named read-outs stand apart in the source and are kept apart here. Marks after values point to notes of the source that are not given here.

A short description of series [1]: Fluorescence spectroscopy and quantum yield measurements. It counts as physicochemical.
In series [2] the target is T1, σ1 receptor (Cavia porcellus, UniProt Q60492).
T1 construct: from tissue; host or cells: guinea pig brain without cerebellum (male Dunkin guinea pigs, Envigo)
Briefly: σ1 receptor radioligand binding assay with (+)-[3H]pentazocine, guinea pig brain membranes. Particulars: mean of at least two experiments in duplicate, read-out: Ki ± SEM σ1. As for the experimental part:
(§1) All of the procedures for the binding assays were previously described. σ1 and σ2 receptor binding assays were carried out according to the literature.[25] […] Incubations were stopped by addition of 1 mL of ice-cold buffer [50 mM TRIS (pH 8.0)], and then the suspension was filtered through GF/B presoaked in 0.3% polyethylenimine (PEI) for at least 60 min prior to use. The filters were washed twice with 1 mL of ice-cold buffer. […] Incubations were stopped by addition of 1 mL of ice-cold buffer [50 mM TRIS (pH 8.0)], and then the suspension was filtered through GF/B presoaked in 0.5% polyethylenimine (PEI) for at least 60 min prior to use. The filters were washed twice with 1 mL of ice-cold buffer. […] Scatchard parameters (Kd and Bmax) and apparent inhibition constants (Ki) were determined by nonlinear curve fitting using GraphPad Prism (version 5.0).[64]

Series [3] addresses σ1 receptor. Particulars: Figure 1 reference compounds and fluorescent ligands; cited from earlier work.
The target in series [4] is σ2 receptor. The settings on record: cited from earlier work.
Series [5] addresses T2, σ2 receptor (Rattus norvegicus, UniProt Q5U3Y7).
T2 construct: from tissue; host or cells: rat liver (Wistar Hannover rats, Envigo)
T2 sequence (Q5U3Y7 1-176): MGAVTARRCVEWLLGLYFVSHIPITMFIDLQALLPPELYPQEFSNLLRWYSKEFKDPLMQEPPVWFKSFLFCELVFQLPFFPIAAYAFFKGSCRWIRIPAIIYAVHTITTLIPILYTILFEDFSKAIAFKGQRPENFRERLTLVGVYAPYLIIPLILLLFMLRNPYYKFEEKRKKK
Briefly: σ2 receptor radioligand binding assay with [3H]DTG, rat liver membranes. The settings on record: for Ki: [3H]DTG with 1 μM (+)-pentazocine, rat liver membranes, mean of at least two experiments in duplicate, read-out: Ki ± SEM σ2; for σ2 selectivity over σ1: from Ki values at σ1 and σ2. As for the experimental part: as §1

Series [6] concerns the target T3, σ2 receptor (Homo sapiens, UniProt Q5BJF2). Briefly: Flow cytometry studies in MCF7 and MCF7KO cells. Type of series: cell-based. Set-up: This cell line was selected on the basis of its high σ2 receptor expression levels; endogenous in cells; host or cells: MCF7 (and MCF7KO, partial TMEM97 knockdown by shRNA). Particulars: flow cytometry, data not shown. As for the experimental part:
Subsequently, the cells were harvested by trypsinization and resuspended in 250 μL of FACS-PBS. The fluorescence intensity was measured by flow cytometry using a BD LSRFortessaTM X-20 cell analyzer (Becton Dickinson, Palo Alto, CA). For this, in total 20000 cells per sample were evaluated. The results were analyzed and quantified using BD FACSDivaTM software.
In general terms: A flow cytometer gives signals particle by particle.

Series [7] addresses T3, σ2 receptor. Kind of series: Flow cytometry σ2 receptor binding assay with fluorescent ligand in place of the radioligand, MCF7 cells. Set-up: This cell line was selected on the basis of its high σ2 receptor expression levels; endogenous in cells; host or cells: MCF7 (and MCF7KO, partial TMEM97 knockdown by shRNA).
Experimental: Similarly, 2 × 10^5 MCF7 cells/well were seeded in a 12-well plate and allowed to recover for 24 h at 37 °C.
At the end of the incubation periods, cells were washed twice with PBS, detached with 200 mL of Cell Dissociation Solution (Sigma Chemical Co.) for 10 min at 37 °C, centrifuged at 13000g for 5 min, and resuspended in 500 mL of PBS. The fluorescence was recorded using a Bio-Guava easyCyte 5 Flow Cytometry System (Millipore, Billerica, MA), with a 530 nm band-pass filter. For each analysis, 50000 events were collected and analyzed with the InCyte software (Millipore).
Setting [8] is: Figure 1 reference compounds and fluorescent ligands, read-out: σ2 Ki.

T1 sequence (Q60492 whole entry): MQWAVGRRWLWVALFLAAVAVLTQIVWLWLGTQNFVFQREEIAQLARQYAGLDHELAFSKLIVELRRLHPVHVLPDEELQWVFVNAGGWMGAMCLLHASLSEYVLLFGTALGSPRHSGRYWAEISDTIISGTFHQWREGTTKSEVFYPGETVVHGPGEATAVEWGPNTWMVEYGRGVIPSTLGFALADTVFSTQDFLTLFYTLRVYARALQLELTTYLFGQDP
T3 sequence (Q5BJF2 whole entry): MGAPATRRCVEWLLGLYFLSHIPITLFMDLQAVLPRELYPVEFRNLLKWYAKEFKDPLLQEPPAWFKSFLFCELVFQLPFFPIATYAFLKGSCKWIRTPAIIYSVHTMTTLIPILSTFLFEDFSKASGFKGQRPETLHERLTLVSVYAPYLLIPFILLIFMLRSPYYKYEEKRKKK

`O=C(COc1ccc(C2=[N+]3C(=Cc4ccc(-c5cccs5)n4[B-]3(F)F)C=C2)cc1)Nc1ccc2ccn(CCCCN3CCC4(CC3)OCc3ccccc34)c2c1` [Compound 28, N-{1-[4-(3H-Spiro[isobenzofuran-1,4′-piperidin]-1′-yl)butyl]-1H-indol-6-yl}-2-{4-[5,5-difluoro-7-(thiophen-2-yl)-5H-5λ^4,6λ^4-dipyrrolo[1,2-c:2′,1′-f][1,3,2]diazaborinin-3-yl]phenoxy}acetamide]: in series [1] (dissolved in CH3OH), the λem is recorded as 630 ^b nm and the λex was 587 ^b nm. Further, the Ki in series [2] is above 5000 nM.

As for `CC1CCN(CCCCc2cccc3cc(OCCCCCCN4C(=O)c5ccc(N(C)C)cc5C4=O)ccc23)CC1` [Compound 5], the Ki in series [3] was 5.2 nM; in series [4] (setting [8]), 45.6 nM.

In the case of `C[N+]1=C(/C=C/C=C/C=C/C=C2\N(CCCCCC(=O)NCCCCCCn3cc(CCCCN4CCC5(CC4)OCc4ccccc45)c4ccccc43)c3ccccc3C2(C)C)C(C)(C)c2ccccc21.[I-]` [Compound 20, 2-{(1E,3E,5E)-7-[(E)-1-{6-[(6-{3-[4-(3H-Spiro[isobenzofuran-1,4′-piperidin]-1′-yl)butyl]-1H-indol-1-yl}hexyl)amino]-6-oxohexyl}-3,3-dimethylindolin-2-ylidene]hepta-1,3,5-trien-1-yl}-1,3,3-trimethyl-3H-indol-1-ium], the Ki in series [5] came to 39.8 ± 4.2 nM. Also, in series [1] (CHCl3), the quantum yield was 39.08%, the λem worked out at 787 nm and the λex is 762 nm. The Ki in series [2] was found to be 88.8 ± 15.1 nM.

For the molecule `CN(C)c1ccc2c(c1)C(=O)N(CCCn1cc(CCCCN3CCC4(CC3)OCc3ccccc34)c3ccccc31)C2=O` [Compound 16, 2-(3-{3-[4-(3H-Spiro[isobenzofuran-1,4′-piperidin]-1′-yl)butyl]-1H-indol-1-yl}propyl)-5-(dimethylamino)isoindoline-1,3-dione], in series [5], the Ki is 10.1 ± 1.1 nM and the “σ2 selectivity over σ1” value is on record as 3–10 fold. In series [6], the “signals in MCF7 cells” value is “dose-dependent signals” and the “signals in MCF7 cells upon administration of 2” value (from here on “signals … of 2”) was “abated”. Besides, in series [1] (CHCl3), the quantum yield stood at 6.85%, the λem came to 490 nm and the λex is recorded as 395 nm. For the same molecule, the Ki in series [2] was 39.3 ± 9 nM.

Consider `COc1cc2c(cc1OC)CN(CCCN1CCc3c(OCCCCCCN4C(=O)c5ccc(N(C)C)cc5C4=O)cccc3C1=O)CC2` [Compound 3], for which the Ki in series [3] is above 5000 nM.

As to `CC1CCN(CCOc2ccc(Cl)cc2)CC1` [Compound 31, 1-[2-(4-chlorophenoxy)ethyl]-4-methylpiperidine], the Ki in series [4] (read-out: Ki at the σ2 receptor) was 239 nM.

For `COc1cc2c(cc1OC)CN(CCCN1CCc3c(OC)cccc3C1=O)CC2` [Compound 2], the Ki in series [7] (displacement of compound 19 (100 nM)) was 4.07 nM; in series [7] (displacement of compound 29 (100 nM)) it was 5.04 nM; in series [3], 2440 nM; in series [4] (setting [8]) it was 4.24 nM.

In the case of `C[N+]1=C(/C=C/C=C/C=C/C=C2/N(CCCCCC(=O)Nc3ccc4ccn(CCCCN5CCC6(CC5)OCc5ccccc56)c4c3)c3ccccc3C2(C)C)C(C)(C)c2ccccc21.[I-]` [Compound 30, 2-[(1E,3E,5E)-7-{(Z)-1-[6-({1-[4-(3H-Spiro[isobenzofuran-1,4′-piperidin]-1′-yl)butyl]-1H-indol-6-yl}amino)-6-oxohexyl]-3,3-dimethylindolin-2-ylidene}hepta-1,3,5-trien-1-yl]-1,3,3-trimethyl-3H-indol-1-ium], in series [5], the Ki was found to be 39.4 ± 6.1 nM and the “σ2 selectivity over σ1” value is reported as around 10 fold. Moreover, in series [1] (CHCl3), the quantum yield was 40.24%, the λem is given as 787 nm and the λex is reported as 762 nm. For the same molecule, the Ki in series [2] was 569 ± 85 nM.

`CN(C)c1ccc2c(c1)C(=O)N(c1ccc3ccn(CCCCN4CCC5(CC4)OCc4ccccc45)c3c1)C2=O` [Compound 23, 2-{1-[4-(3H-Spiro[isobenzofuran-1,4′-piperidin]-1′-yl)butyl]-1H-indol-6-yl}-5-(dimethylamino)isoindoline-1,3-dione]: in series [5], the Ki is 5.07 ± 1.07 nM and the “σ2 selectivity over σ1” value is listed as 60 fold. In series [6], the “signals in MCF7 cells” value is given as “dose-dependent signals” and the “signals … of 2” value is recorded as “abated”. In series [1] (CHCl3), this molecule yielded a quantum yield of 1.31%, a λem of 490 nm and a λex of 395 nm. Moreover, the Ki in series [2] was found to be 296 ± 71 nM.

For the molecule `CN(C)c1ccc2c(c1)C(=O)N(CCCCCCn1cc(CCCCN3CCC4(CC3)OCc3ccccc34)c3ccccc31)C2=O` [Compound 17, 2-(6-{3-[4-(3H-Spiro[isobenzofuran-1,4′-piperidin]-1′-yl)butyl]-1H-indol-1-yl}hexyl)-5-(dimethylamino)isoindoline-1,3-dione], in series [5], the Ki is 3.84 ± 0.8 nM and the “σ2 selectivity over σ1” value is 3–10 fold. In series [6], the “signals in MCF7 cells” value was “dose-dependent signals” and the “signals … of 2” value is given as “abated”. In series [1] (CHCl3), the quantum yield is 6.85% and 6.80%; the λem is on record as 490 nm; the λex worked out at 395 nm. Moreover, in series [2], the Ki stood at 38.1 ± 5.2 nM.

With `O=C(COc1ccc(-c2ccc3n2[B-](F)(F)[N+]2=C(c4cccs4)C=CC2=C3)cc1)NCCCCCCn1cc(CCCCN2CCC3(CC2)OCc2ccccc23)c2ccccc21` [Compound 18, N-(6-{3-[4-(3H-Spiro[isobenzofuran-1,4′-piperidin]-1′-yl)butyl]-1H-indol-1-yl}hexyl)-2-{4-[5,5-difluoro-7-(thiophen-2-yl)-5H-5λ^4,6λ^4-dipyrrolo[1,2-c:2′,1′-f][1,3,2]diazaborinin-3-yl]phenoxy}acetamide], the Ki came out at 220 ± 12 nM in series [5] and 473 ± 30 nM in series [2]. In series [1] (dissolved in CH3OH), the λem was 630 ^b nm. In addition, the λex in series [1] (dissolved in CH3OH) was 587 ^b nm.

For the molecule `c1ccc2c(c1)COC21CCN(CCCCn2ccc3ccccc32)CC1` [Compound 8, reference compound], the “σ2 selectivity over σ1” value in series [5] turned out to be 60 fold. Further, the Ki in series [4] (setting [8]) is 0.43 nM.

A word on the Ki: it is the dissociation constant of the complex between target and ligand, obtained from inhibition or displacement.
